Measurements from patent publication US20140329903A1, “TREATMENT OF NEURODEGENERATIVE DISEASES” (ACADIA PHARMACEUTICALS INC., priority 2011, published 2014).
Entries after “also recorded” stand apart in the source; their conditions may differ.

Test system: 6-hydroxydopamine (6OHDA) lesions of the substantia nigra pars compacta (SNc)
Experiment: 6OHDA lesion of the SNc, bexarotene i.c.v. after lesion
Assay type: in vivo, Sprague-Dawley rats
Conditions: for Effective in rat PD model?: i.c.v. 0.006 mg/kg/day (text: 0.00625), 6OHDA lesioning of the substantia nigra
Method: Following the 28 days of treatment, animals were assessed in 3 tests of coordinated motor function (spontaneous locomotion, rotorod and challenging beam) and then tissue was collected to assess tyrosine hydroxylase immunofluorescence in the substantia nigra (SNc) and DAT and VMAT2 in the striatum (STR). […] The subjects for these experiments were male Sprague-Dawley rats purchased from Charles Rivers Laboratories (Hollister, Calif.) weighing 200-225 g upon arrival. Rats were housed in pairs in polypropylene cages within a temperature controlled vivarium maintained on a 12 hr light:dark cycle (lights on 7 am). For the duration of the experiments, animals received free access to food and water. All procedures were conducted in accordance with the NIH Guidelines for the Care and Use of Laboratory Animals and were approved by the Institutional Animal Care and Use Committee (IACUC) at […] Pharmaceuticals. Animals were acclimated to vivarium conditions and handling for a minimum of one week prior to surgery. […] After 6OHDA infusions, an Alzet osmotic pump (Durect Corporation, Cupertino, Calif.) attached to an intracranial guide cannula was implanted subcutaneously between the shoulder blades of each animal. The guide was placed intracerebroventricularly (i.c.v., A/P -0.8 mm, M/L -1.4 mm, D/V -4.5 mm relative to bregma) and was attached to the skull with jeweler's screws and dental acrylic and the incision was closed with staples. […] They were then incubated in 0.9% physiological saline at 37° C. until surgically implanted. The pumps infused at a rate of 0.25 μL/hr for 28 days after implantation. […] After completion of the experiment, a subset of the osmotic pumps was removed. The pumps were weighed and aspirated in order to verify compound delivery. […] (Columbus, Ohio). Animals were placed into the chamber for 15 min and their distance traveled (cm) was recorded. Rotorod testing was conducted on a rotating cylinder (70 mm diameter) with knurled tread to aid in gripping. Animals were placed on the cylinder and it was set to rotate at 1 rpm for 15 sec. If animals fell or jumped from the cylinder within 30 sec., they were replaced and the acclimation period restarted. Once animals successfully remained on the cylinder for the acclimation period, the speed of rotation was increased 1 rpm every 15 sec to a maximum of 10 rpm. The time in seconds that animals remained on the cylinder after the acclimation period and the maximum rpm achieved were recorded. […] The challenging beam test was conducted on a 102 cm long bi-level beam made from ABS plastic. The top, narrower beam gradually tapered from 3.5 cm to 0.7 cm, while the bottom, wider beam gradually tapered from 5 cm to 1.8 cm along the length of the beam. The beam was elevated 23 cm above the table. Animals were placed in groups of 4 into a holding tub and received five training trials. On the first training trial animals were placed at the end of the beam and were required to jump into a holding tub. On successive trials, animals were placed 25, 50, 75 and 100 cm from the end of the beam and were required to traverse the beam and jump into the holding tub at the end. Following training, a single test trial was conducted where each animal was placed at the beginning of the beam and the start latency (time required to move all four feet from their starting locations) and run time (time required to traverse the beam after starting) were recorded. […] Similarly, fixed brains were sectioned (50 μm) through the striatum and labeled for the dopamine transporter. […] After immuno labeling sections were mounted and coverslipped using fluorescent antifade mounting medium ([…], Dako USA, Carpinteria, Calif.). Single optical plane images were obtained using an Olympus BX51 Fluorescent microscope (Olympus America Inc., Center Valley, Pa.) equipped with a digital camera (Retina 2000R, Qimaging, Surrey, BC). Images were acquired using a 4× air objective ([…]. 0.13) with 2× digital magnification. […]

In the case of `C=C(c1ccc(C(=O)O)cc1)c1cc2c(cc1C)C(C)(C)CCC2(C)C` [Bexarotene, bexarotene], the “DAT and VMAT2 immunohistochemistry in the striatum” value (0.006 mg/kg/day i.c.v. beginning 72 hours after 6OHDA lesion) is reported as “significantly increased all measures; also recorded: improved dopamine transporter and VMAT2 expression”, the “tyrosine hydroxylase immunofluorescence in the SNc” value (0.006 mg/kg/day i.c.v. beginning 72 hours after 6OHDA lesion, vs vehicle) is reported as “significantly improved cell counts, cell size and mean pixel intensity; also recorded: improved tyrosine hydroxylase expression” and the “motor performance (challenging beam, rotorod, spontaneous locomotion) after 6OHDA” value (0.006 mg/kg/day i.c.v. for 28 days beginning 72 hours after lesion) is reported as “not impaired relative to Sham controls; also recorded: reversed behavioral deficits”. For the same compound, the “Effective in rat PD model?” value was “effective in reversing the neuronal and behavioral deficits”, the “Effective in rat PD model?” value (listed as bexarotene) was “Yes” and the “Effective PD dose (rat), i.c.v.” value (i.c.v. continuous infusion, 6OHDA lesion model) was 0.00625 mg/kg/day.
